Test results taken from patent US9248117B2, “Substituted N,N-dihaloamines as antimicrobials” (priority 2010, dated 2016).
Converted amounts (≈) assume the structure as drawn.

How the values were obtained:
E. coli 25922 = experiment: MBC/MFC against E. coli 25922; format: cell-based; details: Escherichia coli
S. aureus 29213 = experiment: MBC/MFC against S. aureus 29213; format: cell-based; details: Staphylococcus aureus
C. albicans 10231 = experiment: MBC/MFC against C. albicans 10231; format: cell-based; details: Candida albicans
L929 cells = experiment: CT50 cytotoxicity in L929 cells; details: pH 7 phosphate

`CC(C)(CCS(=O)(=O)CCOCCOCCO)N(Cl)Cl` [Compound 38-85, 2-(2-(2-(3-(Dichloroamino)-3-methylbutylsulfonyl)ethoxy)ethoxy)ethanol] gave an MBC (E. coli 25922; pH 4 acetate, Table 3) of 4 µg/mL (≈ 11.4 µM), an MBC (E. coli 25922; pH 7 phosphate, Table 3) of 64 µg/mL (≈ 182 µM) and an MBC (S. aureus 29213; pH 4 acetate, Table 3) of 4 µg/mL (≈ 11.4 µM). It also gave an MBC (S. aureus 29213; pH 7 phosphate, Table 3) of 64 µg/mL (≈ 182 µM), an MFC (C. albicans 10231; pH 4 acetate, Table 3) of 32 µg/mL (≈ 90.8 µM) and an MFC (C. albicans 10231; pH 7 phosphate, Table 3) of over 1020 µg/mL. For the same compound, the “CT50 L929 cells” value (L929 cells; Table 3) was 0.04 mM.

`CCCCCCOCC[N+](C)(C)CCC(C)(C)N(Cl)Cl.Cc1ccc(S(=O)(=O)[O-])cc1` [Compound 38-135, 3-(dichloroamino)-N-(2-(hexyloxy)ethyl)-N,N,3-trimethylbutan-1-aminium 4-methylbenzenesulfonate] was tested, and the MBC (E. coli 25922; pH 4 acetate, Table 3) was 8 µg/mL, the MBC (E. coli 25922; pH 7 phosphate, Table 3) was 256 µg/mL and the MBC (S. aureus 29213; pH 4 acetate, Table 3) was 2 µg/mL. It also gave an MBC (S. aureus 29213; pH 7 phosphate, Table 3) of 512 µg/mL, an MFC (C. albicans 10231; pH 4 acetate, Table 3) of 32 µg/mL and an MFC (C. albicans 10231; pH 7 phosphate, Table 3) of over 1020 µg/mL. For the same compound, the “CT50 L929 cells” value (L929 cells; Table 3) was 0.08 mM.

`COCCN1C(=O)C(C)(C)N(Cl)C1(C)C` [Compound 39-01, 1-chloro-3-(2-methoxyethyl)-2,2,5,5-tetramethylimidazolidin-4-one] showed an MBC (E. coli 25922; pH 4 acetate, Table 4) of 2 µg/mL (≈ 8.52 µM), an MBC (E. coli 25922; pH 7 phosphate, Table 4) of 128 µg/mL (≈ 545 µM) and an MBC (S. aureus 29213; pH 4 acetate, Table 4) of 2 µg/mL (≈ 8.52 µM). For the same compound, the MBC (S. aureus 29213; pH 7 phosphate, Table 4) was 128 µg/mL (≈ 545 µM), the MFC (C. albicans 10231; pH 4 acetate, Table 4) was 8 µg/mL (≈ 34.1 µM) and the MFC (C. albicans 10231; pH 7 phosphate, Table 4) was 256 µg/mL (≈ 1090 µM). The “CT50 L929 cells” value (L929 cells; Table 4) was 0.08 mM.

In the case of `CC1(C)C(=O)N(CC(O)CO)C(C)(C)N1Cl` (centres unmarked) [Compound 39-27, 1-chloro-3-(2,3-dihydroxypropyl)-2,2,5,5-tetramethylimidazolidin-4-one], the MBC (E. coli 25922; pH 4 acetate, Table 4) was 4 µg/mL (≈ 16 µM), the MBC (E. coli 25922; pH 7 phosphate, Table 4) was 512 µg/mL (≈ 2040 µM) and the MBC (S. aureus 29213; pH 4 acetate, Table 4) was 4 µg/mL (≈ 16 µM). The MBC (S. aureus 29213; pH 7 phosphate, Table 4) was 1020 µg/mL (≈ 4080 µM), the MFC (C. albicans 10231; pH 4 acetate, Table 4) was 16 µg/mL (≈ 63.8 µM) and the MFC (C. albicans 10231; pH 7 phosphate, Table 4) was over 2050 µg/mL. For the same compound, the “CT50 L929 cells” value (L929 cells; Table 4) was 0.14 mM.

Work on `COCCOCCOCC[N+]1(C)CC(C)(C)N(Cl)C(C)(C)C1.[Cl-]` [Compound 39-106, 4-chloro-1-(2-(2-(2-methoxyethoxy)ethoxy)ethyl)-1,3,3,5,5-pentamethylpiperazin-1-ium chloride] yielded an MBC (E. coli 25922; pH 4 acetate, Table 4) of 16 µg/mL, an MBC (E. coli 25922; pH 7 phosphate, Table 4) of 256 µg/mL and an MBC (S. aureus 29213; pH 4 acetate, Table 4) of 32 µg/mL. For the same compound, the MBC (S. aureus 29213; pH 7 phosphate, Table 4) was over 512 µg/mL, the MFC (C. albicans 10231; pH 4 acetate, Table 4) was 64 µg/mL and the MFC (C. albicans 10231; pH 7 phosphate, Table 4) was over 512 µg/mL. The “CT50 L929 cells” value (L929 cells; Table 4) was 0.24 mM.

Work on `COCCOCCOCC[N+](C)(C)CCN1CC(C)(C)N(Cl)C1=O` [Compound 39-110, 2-(3-chloro-4,4-dimethyl-2-oxoimidazolidin-1-yl)-N-(2-(2-(2-methoxyethoxy)ethoxy)ethyl)-N,N-dimethylethanaminium 4-methylbenzenesulfonate] yielded an MBC (E. coli 25922; pH 4 acetate, Table 4) of 128 µg/mL, an MBC (E. coli 25922; pH 7 phosphate, Table 4) of 1020 µg/mL and an MBC (S. aureus 29213; pH 4 acetate, Table 4) of 128 µg/mL. For the same compound, the MBC (S. aureus 29213; pH 7 phosphate, Table 4) was 2050 µg/mL, the MFC (C. albicans 10231; pH 4 acetate, Table 4) was 256 µg/mL and the MFC (C. albicans 10231; pH 7 phosphate, Table 4) was over 2050 µg/mL. For the same compound, the “CT50 L929 cells” value (L929 cells; Table 4) was 3.9 mM.

Compound `CC(=O)OCC(CS(=O)(=O)CCC(C)(C)N(Cl)Cl)OC(C)=O` (centres unmarked) [Compound 38-51, 3-(3-(Dichloroamino)-3-methylbutylsulfonyl)propane-1,2-diyl diacetate] has an MBC (E. coli 25922; pH 4 acetate, Table 3) of 1 µg/mL, an MBC (E. coli 25922; pH 7 phosphate, Table 3) of 128 µg/mL and an MBC (S. aureus 29213; pH 4 acetate, Table 3) of 2 µg/mL. The MBC (S. aureus 29213; pH 7 phosphate, Table 3) was 128 µg/mL, the MFC (C. albicans 10231; pH 4 acetate, Table 3) was 16 µg/mL and the MFC (C. albicans 10231; pH 7 phosphate, Table 3) was 128 µg/mL.

In the case of `CN1CC(C)(CO)N(Cl)C1=O` (centres unmarked) [Compound 39-124, 3-chloro-4-(hydroxymethyl)-1,4-dimethylimidazolidin-2-one], the MBC (E. coli 25922; pH 4 acetate, Table 4) was 16 µg/mL (≈ 89.6 µM), the MBC (E. coli 25922; pH 7 phosphate, Table 4) was 8 µg/mL (≈ 44.8 µM) and the MBC (S. aureus 29213; pH 4 acetate, Table 4) was 16 µg/mL (≈ 89.6 µM). The MBC (S. aureus 29213; pH 7 phosphate, Table 4) was 32 µg/mL (≈ 179 µM), the MFC (C. albicans 10231; pH 4 acetate, Table 4) was 8 µg/mL (≈ 44.8 µM) and the MFC (C. albicans 10231; pH 7 phosphate, Table 4) was over 1020 µg/mL. For the same compound, the “CT50 L929 cells” value (L929 cells; Table 4) was 0.33 mM.

In the case of `COCCOCCOCCS(=O)(=O)CC(C)(C)N(Cl)Cl` [Compound 38-01, dichloro[1-({2-[2-(2-methoxyethoxy)ethoxy]ethane}sulfonyl)-2-methylpropan-2-yl]amine], the MBC (E. coli 25922; pH 4 acetate, Table 3) was 2 µg/mL (≈ 5.68 µM), the MBC (E. coli 25922; pH 7 phosphate, Table 3) was 256 µg/mL (≈ 727 µM) and the MBC (S. aureus 29213; pH 4 acetate, Table 3) was 2 µg/mL (≈ 5.68 µM). It also gave an MBC (S. aureus 29213; pH 7 phosphate, Table 3) of 256 µg/mL (≈ 727 µM), an MFC (C. albicans 10231; pH 4 acetate, Table 3) of 32 µg/mL (≈ 90.8 µM) and an MFC (C. albicans 10231; pH 7 phosphate, Table 3) of over 512 µg/mL. The “CT50 L929 cells” value (L929 cells; Table 3) was 0.06 mM.

With `CC1(C)C(=O)N(CCCCO)C(C)(C)N1Cl` [Compound 39-125, 1-chloro-3-(4-hydroxybutyl)-2,2,5,5-tetramethylimidazolidin-4-one] the MBC (E. coli 25922; pH 4 acetate, Table 4) was 2 µg/mL (≈ 8.04 µM), the MBC (E. coli 25922; pH 7 phosphate, Table 4) was 32 µg/mL (≈ 129 µM) and the MBC (S. aureus 29213; pH 4 acetate, Table 4) was 2 µg/mL (≈ 8.04 µM). The MBC (S. aureus 29213; pH 7 phosphate, Table 4) was 256 µg/mL (≈ 1030 µM), the MFC (C. albicans 10231; pH 4 acetate, Table 4) was 128 µg/mL (≈ 515 µM) and the MFC (C. albicans 10231; pH 7 phosphate, Table 4) was over 1020 µg/mL. For the same compound, the “CT50 L929 cells” value (L929 cells; Table 4) was 2.21 mM.

In the case of `CC(C)(CCS(=O)(=O)CCO)N(Cl)Cl` [Compound 38-25, 2-(3-(Dichloroamino)-3-methylbutylsulfonyl)ethanol], the MBC (E. coli 25922; pH 4 acetate, Table 3) was 0.5 µg/mL (≈ 1.89 µM), the MBC (E. coli 25922; pH 7 phosphate, Table 3) was 8 µg/mL (≈ 30.3 µM) and the MBC (S. aureus 29213; pH 4 acetate, Table 3) was 1 µg/mL (≈ 3.79 µM). The MBC (S. aureus 29213; pH 7 phosphate, Table 3) was 16 µg/mL (≈ 60.6 µM), the MFC (C. albicans 10231; pH 4 acetate, Table 3) was 16 µg/mL (≈ 60.6 µM) and the MFC (C. albicans 10231; pH 7 phosphate, Table 3) was 512 µg/mL (≈ 1940 µM).

Work on `COCCOCCOCCN1C(=O)C(C)(C)N(Cl)C1(C)C` [Compound 39-04, 1-Chloro-3-(2-(2-(2-methoxyethoxy)ethoxy)ethyl)-2,2,5,5-tetramethylimidazolidin-4-one] yielded an MBC (E. coli 25922; pH 4 acetate, Table 4) of 2 µg/mL (≈ 6.2 µM), an MBC (E. coli 25922; pH 7 phosphate, Table 4) of 256 µg/mL (≈ 793 µM) and an MBC (S. aureus 29213; pH 4 acetate, Table 4) of 2 µg/mL (≈ 6.2 µM). The MBC (S. aureus 29213; pH 7 phosphate, Table 4) was 256 µg/mL (≈ 793 µM), the MFC (C. albicans 10231; pH 4 acetate, Table 4) was 16 µg/mL (≈ 49.6 µM) and the MFC (C. albicans 10231; pH 7 phosphate, Table 4) was 1020 µg/mL (≈ 3170 µM). For the same compound, the “CT50 L929 cells” value (L929 cells; Table 4) was 0.14 mM.

`CC(C)(CCS(=O)(=O)CCOCCS(=O)(=O)O)N(Cl)Cl` [Compound 38-83, 2-(2-(3-(dichloroamino)-3-methylbutylsulfonyl)ethoxy)ethanesulfonic acid] showed an MBC (E. coli 25922; pH 4 acetate, Table 3) of 2 µg/mL (≈ 5.37 µM), an MBC (E. coli 25922; pH 7 phosphate, Table 3) of 128 µg/mL (≈ 344 µM) and an MBC (S. aureus 29213; pH 4 acetate, Table 3) of 1 µg/mL (≈ 2.69 µM). The MBC (S. aureus 29213; pH 7 phosphate, Table 3) was 256 µg/mL (≈ 688 µM), the MFC (C. albicans 10231; pH 4 acetate, Table 3) was 128 µg/mL (≈ 344 µM) and the MFC (C. albicans 10231; pH 7 phosphate, Table 3) was over 1020 µg/mL. The “CT50 L929 cells” value (L929 cells; Table 3) was 1.74 mM.
